This passage reports IC50 results from patent US20130217664A1, “NOVEL COMPOUNDS USEFUL FOR THE TREATMENT OF DEGENERATIVE AND INFLAMMATORY DISEASES” (priority 2012, published 2013).

One experiment concerns the target T1, human JAK1 (Homo sapiens, UniProt P23458).
T1 construct: catalytic domain, amino acids 866-1154; catalog number PV4774; purchased Invitrogen PV4774
Description: JAK1 inhibition assay (polyGT substrate / Ulight-JAK1 peptide). It is filed as biochemical. The note with it: recombinant human JAK1 catalytic domain; polyGT or Ulight-JAK1 peptide assay. The gist of the method:
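Two formats. PolyGT radiometric: 45 min at 30 °C, stopped with phosphoric acid, counted as cpm. Ulight-JAK1 peptide: 60 min at room temperature, stopped with Eu-anti-phosphotyrosine/EDTA, read as RFU. Percent inhibition normalised to vehicle and 10 μM staurosporine.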

In the next experiment the target is T2, human JAK3 (Homo sapiens, UniProt P52333).
T2 construct: catalytic domain (amino acids 781-1124; catalog number PV3855); purchased Invitrogen PV3855
Description: JAK3 inhibition assay. It is filed as biochemical. The note with it: recombinant human JAK3 catalytic domain; polyGT substrate. The essentials: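 Radiometric kinase assay: 0.5 ng JAK3 with 2.5 μg polyGT in Tris pH 7.5/MgCl2 buffer, 1 μM ATP plus 0.25 μCi 33P-γ-ATP, 1% DMSO, 45 min at 30 °C, stopped with phosphoric acid.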

In a further experiment the test system is CTLL-2 cell line. Description: CTLL2 viability assay. The note with it: Mus musculus, IL-2 dependent CTLL2 viability, 24 h, ATP-lite. It is filed as cell-based. The source says: The protocol describes the methods to analyse the activity of compounds on their ability to sustain the IL2-dependent viability of CTLL2.
Final DMSO concentration was 0.1%.

In a further experiment the target is T3, human TYK2 (Homo sapiens, UniProt P29597).
T3 construct: catalytic domain (amino acids 871-1187; catalog number 08-147); purchased Carna Biosciences 08-147
T3 sequence (P29597 871-1187): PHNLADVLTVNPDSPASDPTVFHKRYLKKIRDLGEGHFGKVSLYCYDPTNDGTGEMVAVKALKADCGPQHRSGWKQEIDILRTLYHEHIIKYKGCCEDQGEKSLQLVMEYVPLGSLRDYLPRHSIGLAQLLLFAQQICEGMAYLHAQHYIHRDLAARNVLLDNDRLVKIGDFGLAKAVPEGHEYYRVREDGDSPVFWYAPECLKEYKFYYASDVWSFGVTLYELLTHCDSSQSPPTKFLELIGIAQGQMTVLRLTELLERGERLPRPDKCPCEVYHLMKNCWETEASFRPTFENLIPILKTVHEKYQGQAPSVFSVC
Description: TYK2 inhibition assay. It is filed as biochemical. The conditions noted are these: recombinant human TYK2 catalytic domain, polyGT substrate. The essentials:
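Radiometric kinase reaction run 90 min at 30 °C, stopped with phosphoric acid, washed and scintillation-counted.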

For another experiment, the target named is T4, human JAK2 (Homo sapiens, UniProt O60674).
T4 construct: catalytic domain (amino acids 808-1132; catalog number PV4210); GST; purchased Invitrogen PV4210
Description: JAK2 inhibition assay (polyGT substrate / Ulight-JAK1 peptide). It is filed as biochemical. The conditions noted are these: recombinant human JAK2 catalytic domain; polyGT or Ulight-JAK1 peptide assay. The gist of the method:
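Radiometric: 0.025 mU JAK2 with 2.5 μg polyGT, 1 μM ATP plus ^33P-ATP in MOPS pH 7.5 buffer, 1% DMSO, 90 min at 30° C.; filter counting. Alternative TR-FRET format with Ulight-JAK1 peptide, 60 min at room temperature, Eu-anti-phosphotyrosine detection.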

SMILES strings stand for the structures. pIC50: −log10 of the molar value.

T1 sequence (P23458 866-1154): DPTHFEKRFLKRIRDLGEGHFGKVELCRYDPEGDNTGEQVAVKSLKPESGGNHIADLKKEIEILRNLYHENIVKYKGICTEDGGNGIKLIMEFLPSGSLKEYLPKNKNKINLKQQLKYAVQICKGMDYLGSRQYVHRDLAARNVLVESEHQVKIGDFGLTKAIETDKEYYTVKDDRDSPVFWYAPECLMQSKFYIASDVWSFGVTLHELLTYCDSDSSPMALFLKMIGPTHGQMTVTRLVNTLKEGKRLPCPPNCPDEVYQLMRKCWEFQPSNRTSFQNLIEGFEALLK
T2 sequence (P52333 781-1124): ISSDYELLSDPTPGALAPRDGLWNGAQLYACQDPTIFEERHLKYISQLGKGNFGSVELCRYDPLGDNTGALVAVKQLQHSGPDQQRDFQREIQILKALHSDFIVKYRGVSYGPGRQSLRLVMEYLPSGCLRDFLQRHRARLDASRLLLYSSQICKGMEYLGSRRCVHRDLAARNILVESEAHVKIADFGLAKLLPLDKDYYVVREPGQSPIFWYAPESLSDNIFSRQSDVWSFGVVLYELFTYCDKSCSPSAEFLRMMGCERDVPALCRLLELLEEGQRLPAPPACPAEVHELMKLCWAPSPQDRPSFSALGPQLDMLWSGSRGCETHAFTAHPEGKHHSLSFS
T4 sequence (O60674 808-1132): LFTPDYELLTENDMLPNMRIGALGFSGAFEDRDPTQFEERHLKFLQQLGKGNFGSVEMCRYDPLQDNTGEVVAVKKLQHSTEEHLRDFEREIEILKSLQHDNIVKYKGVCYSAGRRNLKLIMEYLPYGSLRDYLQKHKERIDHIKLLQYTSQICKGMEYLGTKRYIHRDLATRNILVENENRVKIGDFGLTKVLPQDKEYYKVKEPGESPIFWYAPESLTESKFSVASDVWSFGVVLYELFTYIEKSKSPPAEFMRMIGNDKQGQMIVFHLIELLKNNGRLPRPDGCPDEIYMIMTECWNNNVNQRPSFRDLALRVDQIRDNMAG

`CCc1cc(C2CCCC2)ncc1N(C)c1cc2c(cn1)ncn2C` [Compound 433, (6-Cyclopentyl-4-ethyl-pyridin-3-yl)-methyl-(1-methyl-1H-imidazo[4,5-c]pyridin-6-yl)-amine]: the pIC50 is 7.00 to 11.00 on human JAK1; 6.30 to 7.00 at human JAK3; less than 6.00 with CTLL-2 cell line; 6.30 to 7.00 on human TYK2; 7.00 to 11.00 at human JAK2.

As for `CCc1cc(C2CCC2)ncc1N(C)c1cc2c(cn1)ncn2C` [Compound 434, (6-Cyclobutyl-4-ethyl-pyridin-3-yl)-methyl-(1-methyl-1H-imidazo[4,5-c]pyridin-6-yl)-amine], the pIC50 was 7.00 to 11.00 at human JAK1; less than 6.00 on human JAK3; less than 6.00 in the experiment with CTLL-2 cell line; 6.30 to 7.00 on human TYK2; 6.30 to 7.00 on human JAK2.

Regarding `CCc1cc(C(C#N)N2CCC(C#N)CC2)ccc1N(C)c1cc2c(cn1)ncn2C` (centres unmarked) [Compound 435, 1-(Cyano-{3-ethyl-4-[methyl-(1-methyl-1H-imidazo[4,5-c]pyridin-6-yl)-amino]-phenyl}-methyl)-piperidine-4-carbonitrile], the pIC50 is 7.00 to 11.00 at human JAK1; 6.30 to 7.00 at human JAK3; less than 6.00 with CTLL-2 cell line; 7.00 to 11.00 on human TYK2; 7.00 to 11.00 at human JAK2.

As for `CCc1cc(C(C#N)N2CC(NC(=O)OC(C)(C)C)C2)ccc1N(C)c1cc2c(cn1)ncn2C` (centres unmarked) [Compound 436, [1-(Cyano-{3-ethyl-4-[methyl-(1-methyl-1H-imidazo[4,5-c]pyridin-6-yl)-amino]-phenyl}-methyl)-azetidin-3-yl]-carbamic acid tert-butyl ester], the pIC50 on human JAK1 is 7.00 to 11.00; at human JAK3, 6.30 to 7.00; with CTLL-2 cell line it was less than 6.00; at human TYK2, 7.00 to 11.00; at human JAK2 it was 7.00 to 11.00.

Regarding `CCc1cc(C(C#N)N2CCC(CO)CC2)ccc1N(C)c1cc2c(cn1)ncn2C` (centres unmarked) [Compound 437, {3-Ethyl-4-[methyl-(1-methyl-1H-imidazo[4,5-c]pyridin-6-yl)-amino]-phenyl}-(4-hydroxymethyl-piperidin-1-yl)-acetonitrile], the pIC50 at human JAK1 was 7.00 to 11.00; on human JAK3 it was 6.30 to 7.00; in the experiment with CTLL-2 cell line it was less than 6.00; at human TYK2, 7.00 to 11.00; at human JAK2 it was 7.00 to 11.00.

Take `CCc1cc(C(C#N)N2CC[C@@H](F)C2)ccc1N(C)c1cc2c(cn1)ncn2C` (stereo partly drawn) [Compound 438, {3-Ethyl-4-[methyl-(1-methyl-1H-imidazo[4,5-c]pyridin-6-yl)-amino]-phenyl}-((R)-3-fluoro-pyrrolidin-1-yl)-acetonitrile]: the negative logarithm of the IC50 (pIC50) was 7.00 to 11.00 on human JAK1; 6.30 to 7.00 at human JAK3; less than 6.00 with CTLL-2 cell line; 7.00 to 11.00 at human TYK2; 7.00 to 11.00 at human JAK2.

With `CCc1cc(C(C#N)N2CCC[C@@H]2COC)ccc1N(C)c1cc2c(cn1)ncn2C` (stereo partly drawn) [Compound 439, {3-Ethyl-4-[methyl-(1-methyl-1H-imidazo[4,5-c]pyridin-6-yl)-amino]-phenyl}-((R)-2-methoxymethyl-pyrrolidin-1-yl)-acetonitrile], the pIC50 was 7.00 to 11.00 on human JAK1; 6.00 to 6.30 on human JAK3; less than 6.00 in the experiment on CTLL-2 cell line; 7.00 to 11.00 at human TYK2; 6.30 to 7.00 on human JAK2.

In the case of `CCc1cc(C(C#N)N2CC(F)(F)C2)ccc1N(C)c1cc2c(cn1)ncn2C` (centres unmarked) [Compound 440, (3,3-Difluoro-azetidin-1-yl)-{3-ethyl-4-[methyl-(1-methyl-1H-imidazo[4,5-c]pyridin-6-yl)-amino]-phenyl}-acetonitrile], the negative-log IC50 (pIC50) on human JAK1 is 7.00 to 11.00; at human JAK3, 6.30 to 7.00; with CTLL-2 cell line it was less than 6.00; on human TYK2, 7.00 to 11.00; at human JAK2, 7.00 to 11.00.

Turning to `CCc1cc(C(C#N)N2CCC(F)(F)C2)ccc1N(C)c1cc2c(cn1)ncn2C` (centres unmarked) [Compound 441, (3,3-Difluoro-pyrrolidin-1-yl)-{3-ethyl-4-[methyl-(1-methyl-1H-imidazol[4,5-d]pyridin-6-yl)-amino]-phenyl}-acetonitrile], the pIC50 was 7.00 to 11.00 at human JAK1; 6.30 to 7.00 at human JAK3; less than 6.00 in the experiment on CTLL-2 cell line; 7.00 to 11.00 at human TYK2; 7.00 to 11.00 at human JAK2.

Consider `CCc1cc(C(C#N)N2CCC(C#N)C2)ccc1N(C)c1cc2c(cn1)ncn2C` (centres unmarked) [Compound 445, 1-(Cyano-{3-ethyl-4-[methyl-(1-methyl-1H-imidazo[4,5-c]pyridin-6-yl)-amino]-phenyl}-methyl)-pyrrolidine-3-carbonitrile], for which the negative-log IC50 (pIC50) at human JAK1 was 7.00 to 11.00; at human JAK3, 6.30 to 7.00; with CTLL-2 cell line, less than 6.00; at human TYK2 it was 7.00 to 11.00; on human JAK2, 7.00 to 11.00.

For `CCc1cc(C(C#N)N2CC(C)(C)C2)ccc1N(C)c1cc2c(cn1)ncn2C` (centres unmarked) [Compound 446, (3,3-Dimethyl-azetidin-1-yl)-{3-ethyl-4-[methyl-(1-methyl-1H-imidazo[4,5-c]pyridin-6-yl)-amino]-phenyl}-acetonitrile], the pIC50 was 7.00 to 11.00 on human JAK1; 6.00 to 6.30 at human JAK3; less than 6.00 in the experiment with CTLL-2 cell line; 7.00 to 11.00 at human TYK2; 7.00 to 11.00 on human JAK2.

Consider `CCc1cc(C(C#N)N2CCC(O)CC2)ccc1N(C)c1cc2c(cn1)ncn2C` (centres unmarked) [Compound 447, {3-Ethyl-4-[methyl-(1-methyl-1H-imidazo[4,5-c]pyridin-6-yl)-amino]-phenyl}-(4-hydroxy-piperidin-1-yl)-acetonitrile], for which the pIC50 at human JAK1 is 7.00 to 11.00; on human JAK3, 6.30 to 7.00; in the experiment on CTLL-2 cell line it was less than 6.00; at human TYK2 it was 7.00 to 11.00; on human JAK2, 7.00 to 11.00.

As to `CCc1cc(C(C#N)N2CC[C@@H](OC)C2)ccc1N(C)c1cc2c(cn1)ncn2C` (stereo partly drawn) [Compound 448, {3-Ethyl-4-[methyl-(1-methyl-1H-imidazo[4,5-c]pyridin-6-yl)-amino]-phenyl}-((R)-3-methoxy-pyrrolidin-1-yl)-acetonitrile], the negative-log IC50 (pIC50) at human JAK1 was 7.00 to 11.00; at human JAK3, 6.30 to 7.00; with CTLL-2 cell line, less than 6.00; on human TYK2, 7.00 to 11.00; at human JAK2, 7.00 to 11.00.

As for `CCc1cc(C(C#N)N2CCN(C)CC2)ccc1N(C)c1cc2c(cn1)ncn2C` (centres unmarked) [Compound 449, {3-Ethyl-4-[methyl-(1-methyl-1H-imidazo[4,5-c]pyridin-6-yl)-amino]-phenyl}-(4-methyl-piperazin-1-yl)-acetonitrile], the pIC50 on human JAK1 was 7.00 to 11.00; at human JAK3 it was less than 6.00; in the experiment with CTLL-2 cell line it was less than 6.00; on human TYK2, 7.00 to 11.00; at human JAK2, 6.30 to 7.00.

With `CCc1cc(C(C#N)N2CC(O)C2)ccc1N(C)c1cc2c(cn1)ncn2C` (centres unmarked) [Compound 450, {3-Ethyl-4-[methyl-(1-methyl-1H-imidazo[4,5-c]pyridin-6-yl)-amino]-phenyl}-(3-hydroxy-azetidin-1-yl)-acetonitrile], the negative-log IC50 (pIC50) at human JAK1 is 7.00 to 11.00; at human JAK3, 6.30 to 7.00; in the experiment with CTLL-2 cell line it was less than 6.00; on human TYK2, 7.00 to 11.00; on human JAK2, 7.00 to 11.00.

Regarding `CCc1cc(C(C#N)N2CCC(C(N)=O)CC2)ccc1N(C)c1cc2c(cn1)ncn2C` (centres unmarked) [Compound 451, 1-(Cyano-{3-ethyl-4-[methyl-(1-methyl-1H-imidazo[4,5-c]pyridin-6-yl)-amino]-phenyl}-methyl)-piperidine-4-carboxylic acid amide], the negative logarithm of the IC50 (pIC50) at human JAK1 was 7.00 to 11.00; on human JAK3 it was 6.30 to 7.00; in the experiment on CTLL-2 cell line it was less than 6.00; on human TYK2, 7.00 to 11.00; on human JAK2 it was 7.00 to 11.00.
